Earlier results on five molecules are cited in US8211887B2, “Topical preparation and method for transdermal delivery and localization of therapeutic agents” (priority 2005, dated 2012).

Setting [1] is: local anesthetic, for levobupivacaine: locally.

Read-outs that look alike come from different tables or passages of the source.

`CCN(CC)CCOC(=O)c1ccc(N)cc1Cl` [chloroprocaine]: where the note is “local anesthetic”, the duration of action was 0.5 to 1 h, the onset of action is 6 to 12 min and the peak is 10 to 20 min.

`CCCCN1CCCC[C@H]1C(=O)Nc1c(C)cccc1C` [levobupivacaine]: the duration of action is, setting by setting: (if used for epidural or peripheral nerve blocks or obstetrical anesthesia) 3 to 9 h; under setting [1], 2 to 4 h. Besides, for the setting “local anesthetic”, the onset of action was 2 to 10 min.

On to `Cc1cccc(C)c1NC(=O)C1CCCCN1C` (stereo not drawn) [mepivacaine], for which, under “local anesthetic”, the duration of action was 0.75 to 1.5 h, the onset of action was 3 to 5 min and the peak is 15 to 45 min.

For the molecule `CCN(CC)CCOC(=O)c1ccc(N)cc1` [procaine], under “local anesthetic”, the onset of action is 5 to 10 min and the peak result is recorded as “less than 30 minutes”. In addition, the duration of action entry under setting [1] is given as “less than 2 hours”.

For `CCCN1CCCC[C@H]1C(=O)Nc1c(C)cccc1C` [ropivacaine], where the note is “local anesthetic”, the onset of action is 1 to 15 min and the peak was 20 to 45 min. The duration of action under setting [1] was 2 to 6 h.
